Biological target: T1, ABA2 (ABA DEFICIENT 2) (Arabidopsis thaliana, UniProt Q9C826)
T1 sequence (Q9C826 1-285 limits assumed): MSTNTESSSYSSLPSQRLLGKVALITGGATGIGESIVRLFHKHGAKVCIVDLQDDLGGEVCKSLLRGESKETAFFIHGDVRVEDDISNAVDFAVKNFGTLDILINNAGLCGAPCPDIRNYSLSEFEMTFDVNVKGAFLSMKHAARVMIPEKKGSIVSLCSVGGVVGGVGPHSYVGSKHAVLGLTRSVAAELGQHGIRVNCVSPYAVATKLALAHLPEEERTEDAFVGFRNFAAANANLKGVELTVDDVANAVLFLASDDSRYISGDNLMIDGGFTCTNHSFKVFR
Experiment: NADH formation at A340, dehydrogenase activity
Type: biochemical
Conditions: 500 μM NAD+, 30 mM 3,5,5′-trimethylcyclohexanol, 100 mM K2HPO4 pH 7.2, 25°C; noncompetitive

% decrease of activity (2 μg lipid): 75%
Substance: di-18:1-PA
